Values belong to the molecule of their own block, whether it stands above or below them.
Tests used:
JAK2 = JAK2 (Homo sapiens, UniProt O60674); assay: JAK kinase inhibition biochemical assay (Kinase-Glo Plus luminescence), JAK2; conditions: 10 μM ATP
Method: JAK kinase inhibition in vitro biochemical assays were performed using Kinase-Glo Plus luminescence kinase assay kit (Promega). Kinase activity was measured by quantitating the amount of ATP remaining in solution following a kinase reaction. Luminescent signal from the assay was correlated with the amount of ATP present and was inversely correlated with the amount of kinase activity. Compounds were diluted in 10% DMSO and 5 μl of the dilution were added to a 50 μl reaction so that the final concentration of DMSO was 1% in all of the reactions. […] All enzymatic reactions were conducted at 30° C. for 45 minutes. […] After the enzymatic reaction, 50 μl of Kinase-Glo Plus Luminescence kinase assay solution (Promega) were added to each reaction and incubated in the plate for 15 minutes at room temperature. Luminescence signal was measured using a Bio-Tek Synergy 2 microplate reader. Kinase activity was performed in duplicate at each concentration and data were analyzed using Graphpad Prism. The difference between luminescence intensities in the absence of Kinase (Lut) and in the presence of Kinase (Luc) was defined as 100% activity (Lut−Luc). Using luminescence signal (Lu) in the presence of the compound, % activity was calculated as: % activity={Lut−Lu)/(Lut−Luc)}×100%, where Lu=the luminescence intensity in the presence of compound.

[1] = Clinical pharmacokinetic data converted to in vitro concentrations; conditions: human, in vivo
From the text: Given the different potencies of the JAK inhibitors and different pharmacokinetic properties for each drug, it was sought to test each drug at a relevant range of physiological concentrations based on clinical dosing and reported pharmacokinetic data from repeat dose studies. Reported Cmax values in patient sera were converted to in vitro concentrations and adjusted for reported plasma protein binding.

[2] = test system: phospho-STAT-1, -3 and -5 in CD4, CD8 T cells and monocytes (CAR T product, PBMCs); assay: Intracellular phospho-STAT-1, -3, -5 by flow cytometry in immune cell subsets of CAR T product and PBMCs; type: cell-based, human; set-up: Primary Cell IL-6 pSTAT5 signaling (% inhibition) / Primary Cell IL-6 pSTAT1 signaling (% inhibition) / Primary Cell IL-6 pSTAT3 signaling (% inhibition) / Primary cell GM-CSF-pSTAT5, inhibition: concentration or dose not given beside the values
Method: Further experiments were performed to look at impacts of JAK inhibitors on STAT phosphorylation in various immune cell subsets.

[3] = test system: phospho-STAT panel (pSTAT3/4/5), CD3+ T cells; assay: phospho-STAT induction by IL-6, MesoScale Discovery phospho-STAT panel; type: cell-based, human; conditions: CD3+ T cells
Method: CD19 CAR-T, PBMC or CD3+ T cells (AllCells) were thawed and rested 0/N at 37° C. in R10 media. Cells were seeded at 700,000 cells/well and were either untreated or treated with 100 ng/ml IL6+drug at indicated concentrations for 20 minutes at 37° C. The cells were then washed with cold PBS and followed by 60 μl of Tris lysis buffer (provided by MSD) for 30 minutes on ice. Lysates were collected by spin down for 10 minutes at >10,000 rpm. 25 μl/well per condition was used for MesoScale Discovery (MSD) assay using the phospho-STAT panel (pSTAT3/4/5) from MesoScale Discovery following the manufacturer's protocol. pSTAT panel plates were blocked with 150 μl of blocker A solution for 1 hr at RT with shaking. Plates were washed three times with 1× Tris wash buffer. 25 μl of lysate samples were added per well, incubated 2 hr at room temperature or at 4° C. overnight. Plates were washed 3 times with 1× tris wash buffer and then 25 μl of detection antibody solution were added to each well and incubated for 1 hr at room temperature with shaking. Plates were washed and 1× read buffer added to each well and plates were read on the MSD instrument.

Chain of JAK2 (O60674 whole entry): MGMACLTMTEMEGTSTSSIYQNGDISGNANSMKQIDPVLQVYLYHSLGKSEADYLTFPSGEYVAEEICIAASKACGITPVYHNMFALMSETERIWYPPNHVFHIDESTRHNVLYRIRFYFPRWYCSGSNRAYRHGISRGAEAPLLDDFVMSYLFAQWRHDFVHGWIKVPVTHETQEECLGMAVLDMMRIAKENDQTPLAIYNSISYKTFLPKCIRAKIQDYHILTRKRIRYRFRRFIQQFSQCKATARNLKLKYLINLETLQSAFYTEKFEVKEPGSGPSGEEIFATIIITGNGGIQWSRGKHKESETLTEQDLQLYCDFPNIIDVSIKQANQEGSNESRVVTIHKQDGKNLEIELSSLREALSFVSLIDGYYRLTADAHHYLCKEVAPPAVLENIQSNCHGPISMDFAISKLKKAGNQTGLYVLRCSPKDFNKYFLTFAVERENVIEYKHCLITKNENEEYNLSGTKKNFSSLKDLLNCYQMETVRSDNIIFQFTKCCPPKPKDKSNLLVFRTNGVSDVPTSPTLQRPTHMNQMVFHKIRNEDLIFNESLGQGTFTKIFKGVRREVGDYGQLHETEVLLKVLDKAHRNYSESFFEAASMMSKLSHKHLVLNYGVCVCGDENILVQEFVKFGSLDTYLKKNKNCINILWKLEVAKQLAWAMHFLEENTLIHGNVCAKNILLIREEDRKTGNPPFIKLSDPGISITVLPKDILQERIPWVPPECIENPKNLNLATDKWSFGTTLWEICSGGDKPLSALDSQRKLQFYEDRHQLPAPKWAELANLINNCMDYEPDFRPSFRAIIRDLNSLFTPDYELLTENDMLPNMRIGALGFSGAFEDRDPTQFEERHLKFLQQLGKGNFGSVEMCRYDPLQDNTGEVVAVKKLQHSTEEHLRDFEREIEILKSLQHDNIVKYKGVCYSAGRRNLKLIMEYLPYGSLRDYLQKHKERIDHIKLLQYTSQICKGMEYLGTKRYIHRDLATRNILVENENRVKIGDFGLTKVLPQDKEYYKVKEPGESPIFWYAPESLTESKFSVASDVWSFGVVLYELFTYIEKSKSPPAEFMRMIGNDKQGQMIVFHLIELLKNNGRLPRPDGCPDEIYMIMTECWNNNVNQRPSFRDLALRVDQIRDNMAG

Compound: Nc1nc2cccc(-c3ccc(CN4CCS(=O)(=O)CC4)cc3)n2n1 [GS-829845]
IC50 (JAK2): 2160 nM | clinically relevant dose level (in vitro concentration) [1]: ~4 µM | Primary Cell IL-6 pSTAT1 signaling (% inhibition) ([2]; CD4 CART cells): 18% | Primary Cell IL-6 pSTAT3 signaling (% inhibition) ([2]; CD4 CART cells): 6% | Primary Cell IL-6 pSTAT5 signaling (% inhibition) ([2]; CD4 CART cells): 29% | Primary Cell IL-6 pSTAT1 signaling (% inhibition) ([2]; CD8 CART cells): 11% | Primary Cell IL-6 pSTAT3 signaling (% inhibition) ([2]; CD8 CART cells): 2% | Primary Cell IL-6 pSTAT5 signaling (% inhibition) ([2]; CD8 CART cells): 17% | effect on phosphorylated-STAT-1, -STAT-3 and -STAT5 levels ([2]; IL-6 stimulation): only a fraction of the filgotinib suppression levels | Primary cell GM-CSF-pSTAT5, inhibition ([2]; Monocytes within bulk PBMCs): 3% | Primary Cell IL-6 pSTAT1 signaling (% inhibition) ([2]; PBMC CD4 T cells): 25% | Primary Cell IL-6 pSTAT3 signaling (% inhibition) ([2]; PBMC CD4 T cells): 15% | Primary Cell IL-6 pSTAT5 signaling (% inhibition) ([2]; PBMC CD4 T cells): 36% | Primary Cell IL-6 pSTAT1 signaling (% inhibition) ([2]; PBMC CD8 T cells): 10% | Primary Cell IL-6 pSTAT3 signaling (% inhibition) ([2]; PBMC CD8 T cells): 11% | Primary Cell IL-6 pSTAT5 signaling (% inhibition) ([2]; PBMC CD8 T cells): 24% | Primary Cell IL-6 pSTAT1 signaling (% inhibition) ([2]; PBMC Monocytes): 24% | Primary Cell IL-6 pSTAT3 signaling (% inhibition) ([2]; PBMC Monocytes): 17% | Primary Cell IL-6 pSTAT5 signaling (% inhibition) ([2]; PBMC Monocytes): 21% | Primary cell GM-CSF-pSTAT5, inhibition ([2]; T cells within bulk PBMCs): 16%

IC50 (JAK2): 69 nM
Compound: N#CCC1(n2cc(-c3ncnc4[nH]ccc34)cn2)CN(C2CCN(C(=O)c3ccnc(C(F)(F)F)c3F)CC2)C1 [itacitinib]

PPB adj. in Vitro concentration [1]: 97 nM | clinically relevant dose level (in vitro concentration) [1]: ~0.1 µM
Compound: CC[C@@H]1CN(C(=O)NCC(F)(F)F)C[C@@H]1c1cnc2cnc3[nH]ccc3n12 [upadacitinib]
pSTAT3 ([3]; 100 ng/ml IL-6 + drug 10 uM, 20 min, MSD signal (No stim. 689, IL-6 alone 33641)): 2450 | pSTAT4 ([3]; 100 ng/ml IL-6 + drug 10 uM, 20 min, MSD signal (No stim. 1964, IL-6 alone 15405)): 2322 | pSTAT5 ([3]; 100 ng/ml IL-6 + drug 10 uM, 20 min, MSD signal (No stim. 9210, IL-6 alone 17743)): 1354 | pSTAT3 ([3]; IL-6 + drug 0.125 uM, MSD signal (No stim. 689, IL-6 alone 33641)): 3605 | pSTAT4 ([3]; IL-6 + drug 0.125 uM, MSD signal (No stim. 1964, IL-6 alone 15405)): 2819 | pSTAT5 ([3]; IL-6 + drug 0.125 uM, MSD signal (No stim. 9210, IL-6 alone 17743)): 1757 | pSTAT3 ([3]; IL-6 + drug 0.5 uM, MSD signal (No stim. 689, IL-6 alone 33641)): 2207 | pSTAT4 ([3]; IL-6 + drug 0.5 uM, MSD signal (No stim. 1964, IL-6 alone 15405)): 2397 | pSTAT5 ([3]; IL-6 + drug 0.5 uM, MSD signal (No stim. 9210, IL-6 alone 17743)): 1528 | pSTAT3 ([3]; IL-6 + drug 1 uM, MSD signal (No stim. 689, IL-6 alone 33641)): 2393 | pSTAT4 ([3]; IL-6 + drug 1 uM, MSD signal (No stim. 1964, IL-6 alone 15405)): 2417 | pSTAT5 ([3]; IL-6 + drug 1 uM, MSD signal (No stim. 9210, IL-6 alone 17743)): 1534 | pSTAT3 ([3]; IL-6 + drug 5 uM, MSD signal (No stim. 689, IL-6 alone 33641)): 2290 | pSTAT4 ([3]; IL-6 + drug 5 uM, MSD signal (No stim. 1964, IL-6 alone 15405)): 2229 | pSTAT5 ([3]; IL-6 + drug 5 uM, MSD signal (No stim. 9210, IL-6 alone 17743)): 1452 | pSTAT3 ([3]; lower dose titration, IL-6 + drug 3.125 nM, MSD signal (No stim. 123, IL-6 alone 5767)): 4615 | pSTAT4 ([3]; lower dose titration, IL-6 + drug 3.125 nM, MSD signal (No stim. 281, IL-6 alone 3624)): 2687 | pSTAT5 ([3]; lower dose titration, IL-6 + drug 3.125 nM, MSD signal (No stim. 324, IL-6 alone 2352)): 1166 | pSTAT3 ([3]; lower dose titration, IL-6 + drug 6.25 nM, MSD signal (No stim. 123, IL-6 alone 5767)): 3572 | pSTAT4 ([3]; lower dose titration, IL-6 + drug 6.25 nM, MSD signal (No stim. 281, IL-6 alone 3624)): 2797 | pSTAT5 ([3]; lower dose titration, IL-6 + drug 6.25 nM, MSD signal (No stim. 324, IL-6 alone 2352)): 1123 | pSTAT3 ([3]; lower dose titration, IL-6 + drug 12.5 nM, MSD signal (No stim. 123, IL-6 alone 5767)): 2560 | pSTAT4 ([3]; lower dose titration, IL-6 + drug 12.5 nM, MSD signal (No stim. 281, IL-6 alone 3624)): 1607 | pSTAT5 ([3]; lower dose titration, IL-6 + drug 12.5 nM, MSD signal (No stim. 324, IL-6 alone 2352)): 696 | pSTAT3 ([3]; lower dose titration, IL-6 + drug 25 nM, MSD signal (No stim. 123, IL-6 alone 5767)): 1495 | pSTAT4 ([3]; lower dose titration, IL-6 + drug 25 nM, MSD signal (No stim. 281, IL-6 alone 3624)): 1248 | pSTAT5 ([3]; lower dose titration, IL-6 + drug 25 nM, MSD signal (No stim. 324, IL-6 alone 2352)): 564 | pSTAT3 ([3]; lower dose titration, IL-6 + drug 50 nM, MSD signal (No stim. 123, IL-6 alone 5767)): 713 | pSTAT4 ([3]; lower dose titration, IL-6 + drug 50 nM, MSD signal (No stim. 281, IL-6 alone 3624)): 860 | pSTAT5 ([3]; lower dose titration, IL-6 + drug 50 nM, MSD signal (No stim. 324, IL-6 alone 2352)): 460 | pSTAT3 ([3]; lower dose titration, IL-6 + drug 100 nM, MSD signal (No stim. 123, IL-6 alone 5767)): 319 | pSTAT4 ([3]; lower dose titration, IL-6 + drug 100 nM, MSD signal (No stim. 281, IL-6 alone 3624)): 555 | pSTAT5 ([3]; lower dose titration, IL-6 + drug 100 nM, MSD signal (No stim. 324, IL-6 alone 2352)): 375 | Primary Cell IL-6 pSTAT1 signaling (% inhibition) ([2]; CD4 CART cells): 49% | Primary Cell IL-6 pSTAT3 signaling (% inhibition) ([2]; CD4 CART cells): 76% | Primary Cell IL-6 pSTAT5 signaling (% inhibition) ([2]; CD4 CART cells): 60% | Primary Cell IL-6 pSTAT1 signaling (% inhibition) ([2]; CD8 CART cells): 13% | Primary Cell IL-6 pSTAT3 signaling (% inhibition) ([2]; CD8 CART cells): 48% | Primary Cell IL-6 pSTAT5 signaling (% inhibition) ([2]; CD8 CART cells): 52% | Primary cell GM-CSF-pSTAT5, inhibition ([2]; Monocytes within bulk PBMCs): 97% | Primary Cell IL-6 pSTAT1 signaling (% inhibition) ([2]; PBMC CD4 T cells): 74% | Primary Cell IL-6 pSTAT3 signaling (% inhibition) ([2]; PBMC CD4 T cells): 91% | Primary Cell IL-6 pSTAT5 signaling (% inhibition) ([2]; PBMC CD4 T cells): 87% | Primary Cell IL-6 pSTAT1 signaling (% inhibition) ([2]; PBMC CD8 T cells): 32% | Primary Cell IL-6 pSTAT3 signaling (% inhibition) ([2]; PBMC CD8 T cells): 70% | Primary Cell IL-6 pSTAT5 signaling (% inhibition) ([2]; PBMC CD8 T cells): 56% | Primary Cell IL-6 pSTAT1 signaling (% inhibition) ([2]; PBMC Monocytes): 48% | Primary Cell IL-6 pSTAT3 signaling (% inhibition) ([2]; PBMC Monocytes): 93% | Primary Cell IL-6 pSTAT5 signaling (% inhibition) ([2]; PBMC Monocytes): 48% | Primary cell GM-CSF-pSTAT5, inhibition ([2]; T cells within bulk PBMCs): 47%
